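Grown in 96-well plates, cells were treated for 48 hours with each compound at five concentrations. Insufficient inhibition: endpoint recorded as highest concentration tested. TGI denotes the concentration required for complete inhibition of growth.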 *1 amine or outer side, *2 acyl side, *3 side chain or, on linkers, in order; H or OH if unused. Where a SMILES comes first, the peptide text is derived from it. [ ]: non-standard residue; d: D form. The star is where a group is joined. X31 = CC(=O)N(C)SCC(N[*:1])C(=O)[*:2]; X47 = CC(=O)N(C)SCC(N*)/C(O)=N\O; Cbz = O=C(OCc1ccccc1)*; Bn = c1ccc(C*)cc1; For = O=C*
Assays:
Test in all cases: NCI tumour cell line growth inhibition, 48 h
[1] = test system: COLO 205 colon
[2] = test system: EKVX NSCLC
[3] = test system: HCC-2998 colon
[4] = test system: M14 melanoma
[5] = test system: MDA-MB-435
[6] = test system: OVCAR-4 ovarian
[7] = test system: SK-MEL-2 melanoma
[8] = test system: SR leukemia
[9] = test system: SW-620 colon
[10] = test system: U251 CNS

Structure (SMILES)	TGI [1] [µM]	TGI [2] [µM]	TGI [3] [µM]	TGI [4] [µM]	TGI [5] [µM]	TGI [6] [µM]	TGI [7] [µM]	TGI [8] [µM]	TGI [9] [µM]	TGI [10] [µM]
O=c1cc(NCCCCCO)[nH]c(=O)[nH]1	> 100	> 100	> 100	> 100	> 100	> 100	> 100	> 100	> 100	> 100
CCOC(=O)c1c2c3c(cccc3[nH]c1=O)Sc1ncccc1-2	> 100	> 100	> 100	> 100	> 100	> 100	> 100	> 100	> 100	67.3
NNC(=O)CSc1nc2ccc(I)cc2c(=O)n1Cc1ccccc1	53.2	33.2	55.6	40.4	> 100	71.2	46	61.2	> 100	40.8
Nc1cc2c3c(c1)Oc1cc(N)cc4c1C3c1c(cc(N)cc1O4)O2	34.3	> 47.7	> 100	> 100	> 86.9	> 100	> 81.9	50	> 100	> 100
COc1cc(C2SCC(=O)N2c2cc(Cl)c(Cl)cc2Cl)cc(OC)c1OC (stereo not given)	> 100	> 100	> 100	> 100	> 100	> 100	> 100	84.3	> 100	> 100
CCCCCCCC1C(C)c2c([nH]c3ccccc23)C2C(=O)N(c3ccc(OC)cc3)C(=O)C21 (stereo not given)	> 10	> 10	> 10	> 9.51	> 8.39	5.8	> 10	> 10	> 8.94	3.97
O=P1(C(O)/C=C/c2ccccc2)N(Cc2ccccc2)[C@H](c2ccccc2)[C@@H](c2ccccc2)N1Cc1ccccc1 (stereo not given in full)	31.8	> 96.1	> 100	> 100	> 93.3	> 100	41.5	70.7	> 100	> 100
C=CCN1CCC(OC(=O)C(O)(C#CC)C2CCCC2)CC1 (stereo not given)	> 100	> 100	> 100	> 100	> 100	> 100	> 100	> 100	> 100	> 100
CC(=O)N(C)SCC(NC(=O)C(Cc1ccccc1)NC(=O)OCc1ccccc1)C(=O)NC(Cc1ccccc1)C(=O)NC(Cc1cn(C=O)c2ccccc12)C(=O)NC(CCCCNC(=O)OCc1ccccc1)C(=O)NC(C(=O)NC(CSN(C)C(C)=O)/C(O)=N\O)C(C)OCc1ccccc1 (stereo not given) (Cbz-F[X31]FW(For)K(Cbz)T(Bn)-X47; configuration not given here)	> 100	> 100	> 100	> 100	> 100	> 100	> 100	> 100	> 100	> 100
CCC1=NC(N/N=C/c2ccco2)=N/C1=C\c1ccccc1O	> 100	> 100	89.8	> 100	> 100	27.8	89.4	> 100	> 100	> 100
C=CCn1c(=O)c2ccccc2[n+]2c(C)c(C(=O)OCC)sc12	> 100	> 100	> 100	> 100	> 100	> 100	> 100	> 100	> 100	> 100
CCOC(=O)CN1C(=O)c2c(c(C)n(-c3ccccc3)c2C)C1=O	> 100	> 100	> 100	> 100	> 100	> 100	> 100	> 100	> 100	> 100
CO/N=C(\C)c1ccc(Nc2c3ccccc3nc3occc23)cc1	6.37	39.9	1.94	9.59	0.224	7.58	1.94	21.9	18.9	10.9
O=C(CN1CCN(Cc2ccccc2)CC1)c1ccc2[nH]c(=O)oc2c1	> 100	> 100	> 100	> 100	> 100	> 100	> 100	> 100	> 100	> 100
CN(C)c1ccc(/C=c2/c3ccccc3n3c2c2ccccc2[n+]3C)cc1	0.488	23.5	3.33	1.69	1.87	8.3	0.782	1.98	1.61	1.46
N#Cc1c(N2CCCC2)nsc1NCc1ccccc1	> 100	> 100	> 100	> 100	> 100	> 100	> 100	> 100	> 100	> 100
O=S(=O)(O)c1c(Cl)cc(O)c2ncccc12	> 100	> 100	> 100	> 100	> 100	> 100	> 100	> 100	> 100	> 100
COC(=O)CCc1cc(OC)c(O)c(C(Cc2ccc(OC)c(OC)c2)C(=O)OC)c1 (stereo not given)	> 100	> 100	> 100	> 100	> 100	> 100	> 100	> 100	> 100	> 100
CC(=O)[C@@H]1[C@@H](OC(=O)CCC(C)COC2OC(CO)C(O)C(O)C2O)C[C@H]2[C@@H]3CC=C4C[C@@H](OC5OC(CO)C(OC6OC(C)C(O)C(O)C6O)C(O)C5OC5OC(C)C(O)C(O)C5O)CC[C@]4(C)[C@H]3CC[C@]12C (stereo not given in full)	> 100	> 100	> 100	> 100	> 100	> 100	> 100	> 100	> 100	> 100
Cc1c(C#N)c2nnn(-c3ccc(Cl)cc3)c(=O)n2c1-c1ccccc1	0.319	31.3	0.201	14	0.154	> 59.3	2.99	> 56.6	31.4	3

From PubChem BioAssay (NCI)
